Source: US8106152B2, “Antimicrobial composition” (Dairy Australia Limited, priority 2003, dated 2012)
Read-outs that look alike come from different tables or passages of the source. Non-standard residues stand in square brackets, D forms with d. No end group written: not given here. pS = N[C@@H](COP(=O)(O)O)C(=O)O

Key:
[1] = tested on: Streptococcus mutans Ingbritt; test: Antibacterial planktonic assay (microplate growth assay); format: cell-based; conditions: for MIC: pH 7.20, tested singly or in combination with a 1:1 ratio of zinc or calcium; for inhibition of S. mutans growth: growth pH 7.20, up to concentrations of 300 μM
Description: The oral opportunistic pathogen Streptococcus mutans Ingbritt was used in this study as an indicator strain. The antibacterial assay was conducted in 96 well plates and bacterial growth continuously monitored over 40 h, as previously described (Malkoski et al., 2001). Briefly, bacteria were cultured in Todd Hewitt Broth (36.4 g/l) containing Yeast extract (5.0 g/l) and 100 mM potassium phosphate with a pH of 6.3 or 7.2. The bacterial inocula were prepared by diluting exponentially growing cells in growth medium to give 2.7×10^4 viable cells/ml. In the bacterial growth assays test wells contained κ-casein-A(106-169) or κ-casein-B(106-169) at concentrations between 20 and 120 μM. these peptides were also tested in combination with zinc or calcium ions to give ratios of […]:divalent metal ion of 1:1 to 1:4. Synthetic […]κ-casein-A(138-158) and […]κ-casein-B(138-158) peptides were also tested in this assay. The plates were incubated at 37° C. and growth determined by measuring optical density (OD) at 620 nm using an iEMS microplate reader (Labsystems, OY Research Technologies Division).

[2] = tested on: plaque; conditions: double blind crossover trial, Addy et al., 1980; cited from earlier work
[3] = tested on: plaque; conditions: mouthrinse, Silness and Loe plaque index, Giertsen et al. (1988); cited from earlier work
[4] = tested on: S. mutans Ingbritt biofilm; test: Viability of S. mutans cultured as a biofilm in constant depth film fermenter (CDFF); format: cell-based, Streptococcus mutans
Description: A constant depth film fermenter (CDFF: Wimmpenny, Cardiff University, UK) was used for biofilm formation. The CDFF consists of a stainless steel disc rotating at a constant speed of 3 rpm containing 15 polytetrafluoroethylene (PTFE) pans each of which contain 5 plugs of 4.5 mm in diameter. The plugs were set to 0.4 mm below the surface of the steel disc. Inbuilt scrapers were used to maintain a constant biofilm depth of 0.4 mm. The scrapers are attached so that the stainless steel disc rotates under them; the scrapers are spring loaded so that they are pressed down against the pans. An anaerobic atmosphere was maintained in the CDFF by continuous gassing with 5% CO2 in N2. The CDFF was housed in a modified CO2 incubator, which was used to maintain a constant culture temperature of 37° C. A S. mutans Ingbritt batch culture in Todd Hewitt (35.4 g/l), Yeast Extract (8 g/L) broth (THYE) in exponential growth phase was used to inoculate the CDFF at a flow rate of 30 ml/h for 5 h. The growth media, THYE containing 0.1% (w/v) sucrose, was then pumped into the CDFF at a constant flow rate of 40 ml/h.
At specified times prior to and after treatment with solutions, plugs were removed from the CDFF, washed to remove planktonic bacteria and viable counts were performed to determine bacterial numbers. To assess the effect on cell viability of various solutions growth media addition to the CDFF was suspended for 10 min and replaced by the solution at a flow rate of 30 ml/h. After 10 min growth media addition was resumed. Solutions tested in the CDFF were: 2 mM Tris-HCl pH6.0; 10 mg/ml Kappacin preparation (see above) in 2 mM Tris-HCl pH 6.0; 10 mg/ml Kappacin preparation (see above) and 20 mM ZnCl2 in 2 mM Tris-HCl pH 6.0; 20 mM ZnCl2 in 2 mM Tris-HCl pH 6.0; 2 mM ZnCl2 in 2 mM Tris-HCl pH 6.0 and 0.05% chlorhexidine digluconate in deionized water.

[5] = tested on: supragingival dental plaque; test: Clinical antiplaque trial, mouthrinse as only oral hygiene, Silness and Loe Plaque Index; format: in vivo, human
From the text: Ten subjects were recruited for the double-blind, cross-over study. Subjects were recruited from undergraduate students enrolled at the School of Dental Science, The University of Melbourne. The group consisted of 6 females and 4 males with a mean age of 21 years. Subjects were examined prior to the commencement of the trial and all were gauged to be of good health, having dentitions without unrestored carious lesions or evidence of moderate to severe gingivitis. The subjects had not used any dentifrices containing antimicrobial agents prior to commencement of the trial. Approval was obtained from the Human Research Ethics Committee of the University of Melbourne.
At the commencement of the trial, the subjects were instructed to cease all other forms of daily oral hygiene practices and to solely rely on the use of the allocated mouthrinse solution. Four solutions were tested as mouthrinses in this investigation: Solution A: Deionized water. B: 1% (w/v) Kappacin preparation in deionized water. C: 20 mM ZnCl in deionized water. D: 1% (w/v) Kappacin preparation and 20 mM ZnCl in deionized water. The pH of all solutions was adjusted to 6.9±0.1 using KOH. Subjects were instructed to rinse three times daily: morning, mid-day and evening with 15 ml of solution for a duration of one minute. Each trial session was for four days with a clinical evaluation at the end of the trial. The Silness and Loe Plaque Index (PI) was used to evaluate plaque (Silness and Loe, 1964). The gingival area of each tooth surface (distal, buccal, mesial and lingual) was given a score from 0-3. All teeth excluding third molars were scored at the conclusion of the trial. Following each trial session the subjects resumed their normal oral hygiene habits for a minimum of seven days prior to the next trial. Data were analysed using the nonparametric Wilcoxon rank test.

[6] = tested on: Streptococcus mutans Ingbritt; conditions: S. mutans, pH 6.28; previous study (Malkoski et al., 2001); cited from earlier work

[Ca+2].[Cl-].[Cl-] [CaCl2]
MIC ([1]; S. mutans): NI (No inhibition at concentrations up to 1 mM) | effect on S. mutans growth ([1]; alone, at concentrations up to 1 mM): no effect

CC[C@H](C)[C@H](NC(=O)[C@@H](NC(=O)[C@H](CCC(=O)O)NC(=O)[C@@H]1CCCN1C(=O)[C@H](COP(=O)(O)O)NC(=O)[C@H](C)NC(=O)[C@H](CCC(=O)O)NC(=O)[C@H](CC(C)C)NC(=O)[C@@H](NC(=O)[C@H](C)NC(=O)[C@@H](NC(=O)[C@@H](NC(=O)[C@H](CO)NC(=O)[C@H](CCC(=O)O)NC(=O)[C@@H](NC(=O)[C@H](C)N)C(C)C)[C@@H](C)O)C(C)C)[C@@H](C)O)C(C)C)C(=O)N[C@@H](CCC(=O)O)C(=O)N[C@@H](CO)C(=O)N1CCC[C@H]1C(=O)N1CCC[C@H]1C(=O)N[C@@H](CCC(=O)O)C(=O)O [Ser(P)^149κ-casein-B(138-158), Ala Val Glu Ser Thr Val Ala Thr Leu Glu Ala Ser(P) Pro Glu Val Ile Glu Ser Pro Pro]
calculated MIC ([1]; S. mutans, growth pH 6.28, microplate growth assay): 44 µM | inhibition of S. mutans growth [1]: no inhibition

O=C([O-])CC(O)(CC(=O)[O-])C(=O)[O-].O=C([O-])CC(O)(CC(=O)[O-])C(=O)[O-].[Zn+2].[Zn+2].[Zn+2] [Zinc citrate]
reduction of plaque accumulation (Turesky plaque index) [2]: 5-8%

[Cl-].[Cl-].[Zn+2] [ZnCl2]
increase in the tooth surfaces with no plaque compared with a water control [3]: 9% | decrease in viable cell counts ([4]; 20 mM ZnCl2 in 2 mM Tris-HCl pH 6.0): 92% | reduction of viable count ([4]; 5 ml of 2 mM ZnCl2 in 2 mM Tris-HCl pH 6.0): ~60% | plaque accumulation relative to water or other treatments (Wilcoxon rank test, posterior teeth plaque index scores) ([5]; four days mouthrinse as only oral hygiene): significantly (P<0.05) reduced | decrease in mean whole mouth plaque index scores ([5]; four days, 20 mM zinc chloride mouthrinse): 6% | decrease in the mean Plaque Index Score of posterior teeth compared with water control ([5]; four days, 15 ml rinse three times daily, 1% (w/v) Kappacin and/or 20 mM ZnCl2, pH 6.9): 9% | MIC ([1]; S. mutans): 200 µM

[H]/N=C(\N/C(=N/[H])NCCCCCCNC(=N)NC(=N)Nc1ccc(Cl)cc1)Nc1ccc(Cl)cc1 [chlorhexidine digluconate]
decrease in S. mutans cell viability [4]: 48% | time after treatment with no significant difference to pre-treatment viability ([4]; 0.05% (w/v) solution): 3.5 h

AVESTVATLED[pS]PEVIESPP [Ser(P)^149κ-casein-A(138-158)]
MIC [6]: 26 µM | MIC ([1]; S. mutans): NI (No inhibition at concentrations up to 1 mM) | inhibition of S. mutans growth [1]: no inhibition
